Assay results taken from publication PMC8035642, “A haustorial‐expressed lytic polysaccharide monooxygenase from the cucurbit powdery mildew pathogen Podosphaera xanthii contributes to the suppression of chitin‐triggered immunity” (Molecular Plant Pathology, 2021).

Biological target: T1, PHEC27213 (PxLPMO1) (Podosphaera xanthii, UniProt A0A8E4PV92)
T1 construct: gene SHLPMO1; mature protein, signal peptide removed (191 residues), C-terminal 6xHis tag kept, pET30b NdeI/XhoI, E. coli BL21-CodonPlus-RIL; start Met from NdeI site probably before His1
Experiment: MALDI-TOF-MS of reaction products
Format: biochemical
Settings: 1 mM ascorbic acid as reductant, 0.1 M sodium phosphate pH 7.0, 37 °C overnight, 1 μM enzyme; no copper addition told

T1 sequence (A0A8E4PV92 entry or part of it): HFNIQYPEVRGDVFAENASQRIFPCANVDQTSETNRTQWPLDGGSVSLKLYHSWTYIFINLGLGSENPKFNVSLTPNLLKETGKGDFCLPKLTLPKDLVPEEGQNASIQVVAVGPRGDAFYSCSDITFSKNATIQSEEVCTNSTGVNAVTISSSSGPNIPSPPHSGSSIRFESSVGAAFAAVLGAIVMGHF

**Q.** Which “MALDI-TOF-MS of reaction products” value does the source give for `CC(=O)N[C@H]1[C@H](O[C@H]2[C@H](O)[C@@H](NC(C)=O)[C@H](O[C@H]3[C@H](O)[C@@H](NC(C)=O)[C@H](O[C@H]4[C@H](O)[C@@H](NC(C)=O)C(O)O[C@@H]4CO)O[C@@H]3CO)O[C@@H]2CO)O[C@H](CO)[C@@H](O[C@@H]2O[C@H](CO)[C@@H](O[C@@H]3O[C@H](CO)[C@@H](O[C@@H]4O[C@H](CO)[C@@H](O)[C@H](O)[C@H]4NC(C)=O)[C@H](O)[C@H]3NC(C)=O)[C@H](O)[C@H]2NC(C)=O)[C@@H]1O` (stereo partly shown) [DP7, hepta-N-acetylchitoheptaose] here?
**A.** PHEC27213 was able to release, predominantly, DP5 oligosaccharides
